According to US20250340574A1, “MODULATORS OF CYSTIC FIBROSIS TRANSMEMBRANE CONDUCTANCE REGULATOR” (Vertex Pharmaceuticals Incorporated, priority 2022, published 2025):
Values joined by “and” are separate entries in the source; they are usually repeats but may differ in a detail not shown here. Identical values can stand only once. Like-named read-outs stand apart in the source and are kept apart here. Values belong to the compound of their own block, whether it stands above or below them.

Legend:
[1] = biological target: T1, CFTR (F508del/MF-HBE cells) (Homo sapiens, UniProt P13569, DEL508-508); experiment: Ussing chamber assay of CFTR-mediated short-circuit currents, Assay D (single concentration of 1 μM); assay type: cell-based; details: with 44 nM potentiator and 18 μM Tezacaftor, 18-24 hours, 20% human serum
T1 construct: human bronchial epithelial (HBE) cells derived from CF subjects heterozygous for F508del and a minimal function CFTR mutation (F508del/MF-HBE); endogenous in cells; host or cells: Primary human bronchial epithelial cells from CF subjects (F508del/MF genotype), differentiated at an air-liquid interface
Procedure, shortened: (§1)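 Short-circuit current was recorded at 37 °C under voltage clamp (0 mV) with amiloride 30 μM apically, forskolin 20 μM activation, then BPO/GlyH-101/inh-172 (20 μM each) to isolate CFTR current. Before recording, corrector exposure lasted 18–24 h with 18 μM tezacaftor, 20% human serum, and 33 nM (dose–response) or 44 nM (1 μM fixed) potentiator, maintained throughout.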

[2] = amide bond, 13-membered ring, DMF
[3] = biological target: T1, CFTR (F508del/MF-HBE cells); experiment: Ussing chamber assay of CFTR-mediated short-circuit currents, Assay C (0.026 μM to 25 μM, 6 concentrations); assay type: cell-based; details: with 33 nM potentiator and 18 μM Tezacaftor, 20% human serum
Procedure, shortened: as §1

T1 sequence (P13569 with tags, fused parts or gaps DEL508-508): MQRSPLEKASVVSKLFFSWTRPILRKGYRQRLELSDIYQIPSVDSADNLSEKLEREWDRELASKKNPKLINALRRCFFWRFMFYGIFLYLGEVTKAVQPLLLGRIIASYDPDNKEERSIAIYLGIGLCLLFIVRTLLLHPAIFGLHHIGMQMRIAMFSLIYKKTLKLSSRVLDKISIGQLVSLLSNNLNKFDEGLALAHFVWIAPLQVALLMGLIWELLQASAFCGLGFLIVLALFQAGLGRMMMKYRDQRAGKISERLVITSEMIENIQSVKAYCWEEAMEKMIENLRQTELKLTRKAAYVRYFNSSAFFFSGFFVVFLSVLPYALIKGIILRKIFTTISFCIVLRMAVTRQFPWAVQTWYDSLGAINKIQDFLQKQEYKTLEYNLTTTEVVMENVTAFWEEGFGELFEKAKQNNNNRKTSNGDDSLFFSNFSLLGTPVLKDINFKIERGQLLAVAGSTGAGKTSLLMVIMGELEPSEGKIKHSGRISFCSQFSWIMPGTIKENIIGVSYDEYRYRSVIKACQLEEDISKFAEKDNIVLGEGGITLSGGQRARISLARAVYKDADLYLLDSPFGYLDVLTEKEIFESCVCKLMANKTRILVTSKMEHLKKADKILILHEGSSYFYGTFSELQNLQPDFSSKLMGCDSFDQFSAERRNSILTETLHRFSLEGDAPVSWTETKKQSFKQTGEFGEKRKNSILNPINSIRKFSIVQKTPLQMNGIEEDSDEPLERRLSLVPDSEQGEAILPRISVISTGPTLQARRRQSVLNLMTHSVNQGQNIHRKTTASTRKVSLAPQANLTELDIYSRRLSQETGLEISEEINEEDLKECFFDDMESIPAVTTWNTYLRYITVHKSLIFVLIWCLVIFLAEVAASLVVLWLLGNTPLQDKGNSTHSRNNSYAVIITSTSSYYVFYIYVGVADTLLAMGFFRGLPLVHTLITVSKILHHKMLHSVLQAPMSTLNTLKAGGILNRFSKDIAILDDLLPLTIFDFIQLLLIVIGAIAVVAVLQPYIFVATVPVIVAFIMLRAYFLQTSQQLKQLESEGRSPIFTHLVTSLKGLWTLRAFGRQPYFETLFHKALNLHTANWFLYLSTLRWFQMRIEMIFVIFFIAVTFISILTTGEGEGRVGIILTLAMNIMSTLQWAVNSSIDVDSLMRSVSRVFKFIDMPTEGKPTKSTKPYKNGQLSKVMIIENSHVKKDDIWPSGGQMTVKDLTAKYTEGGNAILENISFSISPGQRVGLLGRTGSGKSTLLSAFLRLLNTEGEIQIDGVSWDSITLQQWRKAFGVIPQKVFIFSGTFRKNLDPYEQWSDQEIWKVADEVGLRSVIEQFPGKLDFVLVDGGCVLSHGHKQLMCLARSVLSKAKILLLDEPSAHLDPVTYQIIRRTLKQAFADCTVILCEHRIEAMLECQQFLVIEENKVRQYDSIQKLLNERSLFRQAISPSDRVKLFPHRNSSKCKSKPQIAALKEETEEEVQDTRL

D activity at 1 μM (%) [1]: +++ (+++ is >60%)
SMILES: Cc1cccc(C)c1-c1cc2nc(n1)NS(=O)(=O)c1cccc(c1)C(=O)N(Cc1cnc3nc(C4CC4)n(C)c3n1)[C@H](CC13CC(C1)C3)CO2 [Compound I-175, (11R)-11-(1-Bicyclo[1.1.1]pentanylmethyl)-12-[(2-cyclopropyl-3-methyl-imidazo[4,5-b]pyrazin-5-yl)methyl]-6-(2,6-dimethylphenyl)-2,2-dioxo-9-oxa-2λ^6-thia-3,5,12,19-tetrazatricyclo[12.3.1.14,8]nonadeca-1(18),4(19),5,7,14,16-hexaen-13-one]
ring closure, yield after HPLC ([2]; from Cc1cccc(C)c1-c1cc(OC[C@@H](CC23CC(C2)C3)NCc2cnc3nc(C4CC4)n(C)c3n2)nc(NS(=O)(=O)c2cccc(C(=O)O)c2)n1, CDMT/NMM, 11.1 mM, 16.5 h): 28%

D activity at 1 μM (%) [1]: +++ (+++ is >60%)
SMILES: Cc1cccc(C)c1-c1cc2nc(n1)NS(=O)(=O)c1cccc(c1)C(=O)N(Cc1cnc3nc(C(C)C)oc3n1)[C@H](CC1(C)CC1)CO2 [Compound I-159, (11R)-6-(2,6-Dimethylphenyl)-12-[(2-isopropyloxazolo[4,5-b]pyrazin-6-yl)methyl]-11-[(I-methylcyclopropyl)methyl]-2,2-dioxo-9-oxa-2λ^6-thia-3,5,12,19-tetrazatricyclo[12.3.1.14,8]nonadeca-1(18),4(19),5,7,14,16-hexaen-13-one]
ring closure, yield after HPLC ([2]; from Cc1cccc(C)c1-c1cc(OC[C@@H](CC2(C)CC2)NCc2cnc3nc(C(C)C)oc3n2)nc(NS(=O)(=O)c2cccc(C(=O)O)c2)n1, CDMT/NMM, 26.6 mM, 2.08 h): 26%

D activity at 1 μM (%) [1]: +++ (+++ is >60%)
SMILES: Cc1cccc(C)c1-c1cc2nc(n1)NS(=O)(=O)c1cccc(c1)C(=O)N(Cc1cnc3oc(C(C)C)c(C(F)(F)F)c3n1)[C@H](CC1(C)CC1)CO2 [Compound I-126, (11R)-6-(2,6-dimethylphenyl)-12-[[6-isopropyl-7-(trifluoromethyl)furo[2,3-b]pyrazin-2-yl]methyl]-11-[(1-methylcyclopropyl)methyl]-2,2-dioxo-9-oxa-2λ^6-thia-3,5,12,19-tetrazatricyclo[12.3.1.14,8]nonadeca-1(18),4(19),5,7,14,16-hexaen-13-one]
ring closure, yield after HPLC ([2]; from Cc1cccc(C)c1-c1cc(OC[C@@H](CC2(C)CC2)NCc2cnc3oc(C(C)C)c(C(F)(F)F)c3n2)nc(NS(=O)(=O)c2cccc(C(=O)O)c2)n1, CDMT/NMM, 12.1 mM, 16.5 h): 36%

D activity at 1 μM (%) [1]: +++ (+++ is >60%)
SMILES: Cc1cccc(C)c1-c1cc2nc(n1)NS(=O)(=O)c1cccc(c1)C(=O)N(Cc1cnc3oc(C(C)C)nc3n1)[C@H](CC1(C)CC1)CO2 [Compound I-149, (11R)-6-(2,6-Dimethylphenyl)-12-[(2-isopropyloxazolo[4,5-b]pyrazin-5-yl)methyl]-11-[(1-methylcyclopropyl)methyl]-2,2-dioxo-9-oxa-2λ^6-thia-3,5,12,19-tetrazatricyclo[12.3.1.14,8]nonadeca-1(18),4(19),5,7,14,16-hexaen-13-one]
ring closure, yield after HPLC ([2]; from Cc1cccc(C)c1-c1cc(OC[C@@H](CC2(C)CC2)NCc2cnc3oc(C(C)C)nc3n2)nc(NS(=O)(=O)c2cccc(C(=O)O)c2)n1, CDMT/NMM, 23.5 mM, 2.08 h): 40%

D activity at 1 μM (%) [1]: +++ (+++ is >60%)
SMILES: Cc1cccc(C)c1-c1cc2nc(n1)NS(=O)(=O)c1cccc(c1)C(=O)N(Cc1nc3cc(C4(C)CC4)oc3cc1F)[C@H](CC1(C)CC1)CO2 [Compound I-234, (11R)-6-(2,6-Dimethylphenyl)-12-[[6-fluoro-2-(1-methylcyclopropyl)furo[3,2-b]pyridin-5-yl]methyl]-11-[(1-methylcyclopropyl)methyl]-2,2-dioxo-9-oxa-2λ^6-thia-3,5,12,19-tetrazatricyclo[12.3.1.14,8]nonadeca-1(18),4(19),5,7,14,16-hexaen-13-one]
ring closure, yield after HPLC ([2]; from Cc1cccc(C)c1-c1cc(OC[C@@H](CC2(C)CC2)NCc2nc3cc(C4(C)CC4)oc3cc2F)nc(NS(=O)(=O)c2cccc(C(=O)O)c2)n1, CDMT/NMM, 25.0 °C): 57%

D activity at 1 μM (%) [1]: +++ (+++ is >60%)
SMILES: Cc1cccc(C)c1-c1cc2nc(n1)NS(=O)(=O)c1cccc(c1)C(=O)N(Cc1cnc3oc(C(C)C)cc3n1)[C@H](CC1CCCOC1)CO2 (single isomer, unassigned) [Compound I-66]
ring closure, yield after HPLC ([2]; from Cc1cccc(C)c1-c1cc(OC[C@@H](CC2CCCOC2)NCc2cnc3oc(C(C)C)cc3n2)nc(NS(=O)(=O)c2cccc(C(=O)O)c2)n1, CDMT/NMM, 11.8 mM, 72.5 h): 17% and 20%

D activity at 1 μM (%) [1]: +++ (+++ is >60%)
SMILES: Cc1cccc(C)c1-c1cc2nc(n1)NS(=O)(=O)c1cccc(c1)C(=O)N(Cc1cnc3oc(C(C)(C)C)cc3n1)[C@H](C[C@H]1CCCCO1)CO2 [Compound I-220, (11R)-12-[(6-tert-Butylfuro[2,3-b]pyrazin-2-yl)methyl]-6-(2,6-dimethylphenyl)-2,2-dioxo-11-[[(2R)-tetrahydropyran-2-yl]methyl]-9-oxa-2λ^6-thia-3,5,12,19-tetrazatricyclo[12.3.1.14,8]nonadeca-1(18),4(19),5,7,14,16-hexaen-13-one]
ring closure, yield after HPLC ([2]; from Cc1cccc(C)c1-c1cc(OC[C@@H](C[C@H]2CCCCO2)NCc2cnc3oc(C(C)(C)C)cc3n2)nc(NS(=O)(=O)c2cccc(C(=O)O)c2)n1, CDMT/DIEA, 11.6 mM, 48.0 h): 70%

D activity at 1 μM (%) [1]: +++ (+++ is >60%)
SMILES: Cc1cccc(C)c1-c1cc2nc(n1)NS(=O)(=O)c1cccc(c1)C(=O)N(Cc1cnc3oc(C(C)C)c(Cl)c3n1)[C@H](CC1(C)CC1)CO2 [Compound I-161, (11R)-12-[(7-chloro-6-isopropyl-furo[2,3-b]pyrazin-2-yl)methyl]-6-(2,6-dimethylphenyl)-11-[(1-methylcyclopropyl)methyl]-2,2-dioxo-9-oxa-2λ^6-thia-3,5,12,19-tetrazatricyclo[12.3.1.14,8]nonadeca-1(18),4(19),5,7,14,16-hexaen-13-one]
ring closure, yield after HPLC ([2]; from Cc1cccc(C)c1-c1cc(OC[C@@H](CC2(C)CC2)NCc2cnc3oc(C(C)C)c(Cl)c3n2)nc(NS(=O)(=O)c2cccc(C(=O)O)c2)n1, CDMT/NMM, 14.9 mM, 19.0 h): 54%

D activity at 1 μM (%) [1]: +++ (+++ is >60%)
SMILES: Cc1cccc(C)c1-c1cc2nc(n1)NS(=O)(=O)c1cccc(c1)C(=O)N(Cc1cnc3oc(C(C)C)c(NC(=O)OC(C)(C)C)c3n1)[C@H](CC1(C)CC1)CO2 [Compound I-210, tert-Butyl N-[2-[[(11R)-6-(2,6-dimethylphenyl)-11-[(1-methylcyclopropyl)methyl]-2,2,13-trioxo-9-oxa-2λ^6-thia-3,5,12,19-tetrazatricyclo[12.3.1.14,8]nonadeca-1(18),4(19),5,7,14,16-hexaen-12-yl]methyl]-6-isopropyl-furo[2,3-b]pyrazin-7-yl]carbamate]
ring closure, yield after HPLC ([2]; from Cc1cccc(C)c1-c1cc(OC[C@@H](CC2(C)CC2)NCc2cnc3oc(C(C)C)c(NC(=O)OC(C)(C)C)c3n2)nc(NS(=O)(=O)c2cccc(C(=O)O)c2)n1, CDMT/NMM, 13.4 mM, 5.5 h): 55%

D activity at 1 μM (%) [1]: +++ (+++ is >60%)
SMILES: Cc1cccc(C)c1-c1cc2nc(n1)NS(=O)(=O)c1cccc(c1)C(=O)N(Cc1cnc3oc(C4CC4)cc3n1)[C@H](C=C1CCC1)CO2 [Compound I-154, (11R)-11-(cyclobutylidenemethyl)-12-[(6-cyclopropylfuro[2,3-b]pyrazin-2-yl)methyl]-6-(2,6-dimethylphenyl)-2,2-dioxo-9-oxa-2λ^6-thia-3,5,12,19-tetrazatricyclo[12.3.1.14,8]nonadeca-1(18),4(19),5,7,14,16-hexaen-13-one]
ring closure, yield after HPLC ([2]; from Cc1cccc(C)c1-c1cc(OC[C@@H](C=C2CCC2)NCc2cnc3oc(C4CC4)cc3n2)nc(NS(=O)(=O)c2cccc(C(=O)O)c2)n1, CDMT/NMM, 25.1 mM, 2.08 h): 14%

D activity at 1 μM (%) [1]: +++ (+++ is >60%)
SMILES: Cc1cccc(C)c1-c1cc2nc(n1)NS(=O)(=O)c1cccc(c1)C(=O)N(Cc1cc3ccn(C(C)C)c3cn1)[C@H](CC1(C)CC1)CO2 [III-25, (11R)-6-(2,6-Dimethylphenyl)-12-[(I-isopropylpyrrolo[2,3-c]pyridin-5-yl)methyl]-11-[(I-methylcyclopropyl)methyl]-2,2-dioxo-9-oxa-2λ^6-thia-3,5,12,19-tetrazatricyclo[12.3.1.14,8]nonadeca-1(18),4(19),5,7,14,16-hexaen-13-one]
ring closure, yield after HPLC ([2]; from Cc1cccc(C)c1-c1cc(OC[C@@H](CC2(C)CC2)NCc2cc3ccn(C(C)C)c3cn2)nc(NS(=O)(=O)c2cccc(C(=O)O)c2)n1, CDMT/NMM, 9.73 mM, 16.33 h): 50%

EC50 [3]: < 1000 nM | Emax ([3]; read-out: C Max activity (%)): > 60%
SMILES: Cc1cccc(C)c1-c1cc2nc(n1)NS(=O)(=O)c1cccc(c1)C(=O)N(Cc1cnc3cc(C(C)(C)C)n(C)c3n1)[C@H](C[C@H]1CCC(C)(C)O1)CO2 [IV-98, (11R)-12-[(6-tert-butyl-5-methyl-pyrrolo[2,3-b]pyrazin-3-yl)methyl]-6-(2,6-dimethylphenyl)-11-[[(2R)-5,5-dimethyltetrahydrofuran-2-yl]methyl]-2,2-dioxo-9-oxa-2λ^6-thia-3,5,12,19-tetrazatricyclo[12.3.1.14,8]nonadeca-1(18),4(19),5,7,14,16-hexaen-13-one]
ring closure, yield after HPLC ([2]; from Cc1cccc(C)c1-c1cc(OC[C@@H](C[C@H]2CCC(C)(C)O2)NCc2cnc3cc(C(C)(C)C)n(C)c3n2)nc(NS(=O)(=O)c2cccc(C(=O)O)c2)n1, CDMT/NMM, 22.7 mM, 25.0 °C): 58%
